Measurements taken from patent publication US10988477B2 (Merck Patent GmbH, priority 2018, dated 2021).
pIC50, pKi: −log10 of the molar value. Read-outs that look alike come from different tables or passages of the source.

Experiments:
GCN2 kinase = GCN2 kinase (Homo sapiens, UniProt Q9P2K8); test: GCN2 enzyme inhibition assay (Transcreener ADP2 fluorescence polarization); format: biochemical; settings: 280 μM ATP
Method in brief: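 Inhibition of 4 nM GCN2 was measured with compound up to 8 μM final, ATP 280 μM and (RS)7 peptide 200 μM over a 1 h, 25 °C reaction. ADP FP readout; IC50 and Ki(app) calculated from percent inhibition.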

[1] = molecular target: intracellular GCN2 (phosphorylation of the GCN2 substrate eIF2α) (Homo sapiens, UniProt Q9P2K8); test: GCN2 cellular inhibition assay (AlphaScreen SureFire P-eIF2α Ser51, borrelidin-treated U2OS cells); format: cell-based
Sequence of intracellular GCN2 (phosphorylation of the GCN2 substrate eIF2α) (Q9P2K8 whole entry): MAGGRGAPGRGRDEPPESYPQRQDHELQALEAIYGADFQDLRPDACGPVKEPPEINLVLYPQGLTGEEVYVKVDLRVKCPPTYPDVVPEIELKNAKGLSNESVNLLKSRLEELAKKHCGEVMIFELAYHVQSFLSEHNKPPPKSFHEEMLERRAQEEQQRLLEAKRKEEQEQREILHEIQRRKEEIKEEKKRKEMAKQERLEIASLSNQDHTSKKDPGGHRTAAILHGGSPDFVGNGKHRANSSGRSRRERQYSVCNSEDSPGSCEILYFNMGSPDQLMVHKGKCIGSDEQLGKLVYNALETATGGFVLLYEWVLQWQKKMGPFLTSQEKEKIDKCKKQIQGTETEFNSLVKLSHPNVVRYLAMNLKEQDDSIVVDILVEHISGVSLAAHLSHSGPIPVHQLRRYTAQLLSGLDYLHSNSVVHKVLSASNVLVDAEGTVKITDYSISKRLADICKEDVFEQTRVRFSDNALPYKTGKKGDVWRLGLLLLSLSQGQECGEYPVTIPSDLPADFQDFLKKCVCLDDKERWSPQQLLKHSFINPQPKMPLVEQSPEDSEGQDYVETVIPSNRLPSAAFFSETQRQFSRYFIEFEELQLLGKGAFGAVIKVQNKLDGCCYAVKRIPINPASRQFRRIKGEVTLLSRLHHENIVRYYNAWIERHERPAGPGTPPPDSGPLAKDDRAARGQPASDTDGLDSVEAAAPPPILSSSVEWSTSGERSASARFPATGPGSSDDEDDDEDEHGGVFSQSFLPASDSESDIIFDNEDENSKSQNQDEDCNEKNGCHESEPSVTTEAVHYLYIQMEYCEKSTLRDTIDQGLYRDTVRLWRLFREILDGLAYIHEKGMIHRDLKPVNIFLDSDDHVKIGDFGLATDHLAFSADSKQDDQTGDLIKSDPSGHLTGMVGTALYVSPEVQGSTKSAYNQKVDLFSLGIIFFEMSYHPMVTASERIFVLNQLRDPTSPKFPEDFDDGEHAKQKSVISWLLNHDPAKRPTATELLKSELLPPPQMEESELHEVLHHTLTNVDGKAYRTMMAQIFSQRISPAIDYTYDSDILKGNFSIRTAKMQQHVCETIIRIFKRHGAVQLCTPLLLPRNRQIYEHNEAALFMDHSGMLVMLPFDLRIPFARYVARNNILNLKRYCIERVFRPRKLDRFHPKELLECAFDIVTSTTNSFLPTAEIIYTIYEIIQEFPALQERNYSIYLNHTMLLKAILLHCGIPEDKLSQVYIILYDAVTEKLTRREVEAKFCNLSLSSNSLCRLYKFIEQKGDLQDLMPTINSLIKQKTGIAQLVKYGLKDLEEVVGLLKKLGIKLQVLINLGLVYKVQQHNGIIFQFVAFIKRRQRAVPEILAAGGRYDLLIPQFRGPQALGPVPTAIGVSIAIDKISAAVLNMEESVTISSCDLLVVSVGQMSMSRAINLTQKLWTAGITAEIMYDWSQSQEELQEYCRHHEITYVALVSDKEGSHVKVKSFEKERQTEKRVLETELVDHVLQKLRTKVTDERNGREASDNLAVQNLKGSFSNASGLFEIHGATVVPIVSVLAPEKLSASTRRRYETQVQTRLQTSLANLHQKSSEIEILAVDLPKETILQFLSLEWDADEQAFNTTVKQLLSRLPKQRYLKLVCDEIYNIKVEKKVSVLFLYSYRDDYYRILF
Method in brief: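 Phospho-eIF2α (Ser51) in lysates was quantified by AlphaScreen SureFire after a 1 h, 37 °C treatment of U2OS cells with 10 μM borrelidin and compound at 4-fold dilutions starting from 40 μM final. Inhibition expressed in percent against wells stimulated by borrelidin alone.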

[2] = compounds of Formula II, 4 nM GCN2 kinase
[3] = compounds of Formula II, biomarker assay, phosphorylated eIF2α Ser51 in borrelidin-treated U2OS cells
[4] = Enzyme activity for compounds of Formula IV, Ki(app), 25° C.
[5] = compounds of Formula IV, biomarker assay, phosphorylated eIF2α Ser51 in borrelidin-treated U2OS cells

Sequence of GCN2 kinase (Q9P2K8 whole entry): as above

Structure (SMILES)	pKi (GCN2 kinase; [2])	pIC50 [1, 3]	pKi (GCN2 kinase; [4])	pIC50 [1, 5]	also measured
CC(=O)N1CCN(c2cc(-c3cnc4ccc(-c5cccnc5)nn34)ccn2)CC1 [II-737, 1-(4-(4-(6-(pyridin-3-yl)imidazo[1,2-b]pyridazin-3-yl)pyridin-2-yl)piperazin-1-yl)ethan-1-one]	< 6.00	< 5.30			
FC(F)c1cn2c(-c3nccc(N4CCCC(c5cn[nH]c5)C4)n3)cnc2cn1 (stereo not shown) [IV-58, 3-(4-(3-(1H-Pyrazol-4-yl)piperidin-1-yl)pyrimidin-2-yl)-6-(difluoromethyl)imidazo[1,2-a]pyrazine]			7.00 to 8.00	5.30 to 6.30	
OC[C@@H]1CCCN(c2cc(-c3cnc4ccc(C(F)F)nn34)ncn2)C1 [II-520, (R)-(1-(6-(6-(Difluoromethyl)imidazo[1,2-b]pyridazin-3-yl)pyrimidin-4-yl)piperidin-3-yl)methanol]	6.00 to 8.00	5.30 to 6.30			
CS(=O)(=O)N1CCC2(CCCN(c3cc(-c4cnc5ccc(C(F)F)nn45)ncn3)C2)C1 (stereo not shown) [II-56, 7-(6-(6-(Difluoromethyl)imidazo[1,2-b]pyridazin-3-yl)pyrimidin-4-yl)-2-(methylsulfonyl)-2,7-diazaspiro[4.5]decane]	6.00 to 8.00	5.30 to 6.30			
CC1C(CO)CCCN1c1cc(-c2cnc3ccc(C(F)F)nn23)ncn1 (single isomer, unassigned) [II-393, (1-(6-(6-(Difluoromethyl)imidazo[1,2-b]pyridazin-3-yl)pyrimidin-4-yl)-2-methylpiperidin-3-yl)methanol]	6.00 to 8.00	< 5.30			
NC(=O)CCC1CCN(c2cc(-c3cnc4ccc(C(F)F)nn34)ncn2)CC1 [II-212, 3-(1-(6-(6-(Difluoromethyl)imidazo[1,2-b]pyridazin-3-yl)pyrimidin-4-yl)piperidin-4-yl)propanamide]	6.00 to 8.00	5.30 to 6.30			
CC(=O)N1CCN(c2cc(-c3cnn4ccc(C(F)F)nc34)ncn2)CC1 [III-1, 1-[4-[6-[5-(Difluoromethyl)pyrazolo[1,5-a]pyrimidin-3-yl]pyrimidin-4-yl]piperazin-1-yl]ethanone]					pKi (GCN2 kinase; compounds of Formula III, 4 nM GCN2 kinase): 6.00 to 8.00; pIC50 ([1]; compounds of Formula III, U2OS cells, 10 μM borrelidin, 1 h, read-out: GCN2 Biomarker (IC50)): < 5.30
CC1CN(c2nccc(-c3cnc4cnc(Cl)cn34)n2)C(C)C(c2cn[nH]c2)N1 (single isomer, unassigned) [IV-408, 6-Chloro-3-(2-(2,5-dimethyl-3-(1H-pyrazol-4-yl)piperazin-1-yl)pyrimidin-4-yl)imidazo[1,2-a]pyrazine]			6.00 to 7.00	< 5.30	
Cc1cc(N2CCC(c3cn[nH]c3)C2)nc(-c2cnc3cnc(C(F)(F)F)cn23)n1 (stereo not shown) [IV-668, 3-(4-(3-(1H-Pyrazol-4-yl)pyrrolidin-1-yl)-6-methylpyrimidin-2-yl)-6-(trifluoromethyl)imidazo[1,2-a]pyrazine]			7.00 to 8.00	5.30 to 6.30	
CC1CN(C)C(CNS(C)(=O)=O)CN1c1cc(-c2cnc3ccc(C(F)F)nn23)ncn1 (stereo not shown) [II-423, N-((4-(6-(6-(Difluoromethyl)imidazo[1,2-b]pyridazin-3-yl)pyrimidin-4-yl)-1,5-dimethylpiperazin-2-yl)methyl)methanesulfonamide]	6.00 to 8.00	< 5.30			
CS(C)(=O)=NC1CC(C(F)(F)F)CN(c2cc(-c3cnc4ccc(C(F)F)nn34)ncn2)C1 (stereo not shown) [II-695, ((1-(6-(6-(Difluoromethyl)imidazo[1,2-b]pyridazin-3-yl)pyrimidin-4-yl)-5-(trifluoromethyl)piperidin-3-yl)imino)dimethyl-λ^6-sulfanone]	> 8.00	5.30 to 6.30			
NC(=O)c1ccc(F)c(-c2ccnc(-c3cnc4cnc(C(F)F)cn34)n2)c1 [IV-176, 3-(2-(6-(Difluoromethyl)imidazo[1,2-a]pyrazin-3-yl)pyrimidin-4-yl)-4-fluorobenzamide]			6.00 to 7.00	< 5.30	
FC(F)c1ccc2ncc(-c3cc(N4CCOC(c5cn[nH]c5)C4)ncn3)n2n1 (stereo not shown) [II-4, 4-(6-(6-(Difluoromethyl)imidazo[1,2-b]pyridazin-3-yl)pyrimidin-4-yl)-2-(1H-pyrazol-4-yl)morpholine]	6.00 to 8.00	5.30 to 6.30			
CC1CN(c2cc(-c3cnc4ccc(C(F)F)nn34)ncn2)C(C)C(c2cn[nH]c2)N1 (single isomer, unassigned) [II-652, 6-(Difluoromethyl)-3-(6-(2,5-dimethyl-3-(1H-pyrazol-4-yl)piperazin-1-yl)pyrimidin-4-yl)imidazo[1,2-b]pyridazine]	6.00 to 8.00	5.30 to 6.30			
OCCC1CCCN(c2cc(-c3cnc4ccc(C(F)(F)F)nn34)ncn2)C1 (stereo not shown) [II-499, 2-(1-(6-(6-(Trifluoromethyl)imidazo[1,2-b]pyridazin-3-yl)pyrimidin-4-yl)piperidin-3-yl)ethan-1-ol]	6.00 to 8.00	5.30 to 6.30			
CC1C(C(N)=O)CCCN1c1ccnc(-c2cnc3cnc(C(F)F)cn23)n1 (stereo not shown) [IV-54, 1-(2-(6-(Difluoromethyl)imidazo[1,2-a]pyrazin-3-yl)pyrimidin-4-yl)-2-methylpiperidine-3-carboxamide]			7.00 to 8.00	5.30 to 6.30	
CC1CN(c2ccnc(-c3cnc4cnc(C(F)(F)F)cn34)n2)C(C)C(c2c[nH]cn2)O1 (single isomer, unassigned) [IV-639, 2-(1H-Imidazol-4-yl)-3,6-dimethyl-4-(2-(6-(trifluoromethyl)imidazo[1,2-a]pyrazin-3-yl)pyrimidin-4-yl)morpholine]			> 8.00	> 6.30	
NC(=O)C1CCCN(c2cccc(-c3cnc4cnc(C(F)F)cn34)n2)C1 (stereo not shown) [IV-55, 1-(6-(6-(Difluoromethyl)imidazo[1,2-a]pyrazin-3-yl)pyridin-2-yl)piperidine-3-carboxamide]			7.00 to 8.00	5.30 to 6.30	
FC(F)c1ccc2ncc(-c3cc(N4CCC(c5c[nH]cn5)C4)ncn3)n2n1 (stereo not shown) [II-203, 3-(6-(3-(1H-imidazol-4-yl)pyrrolidin-1-yl)pyrimidin-4-yl)-6-(difluoromethyl)imidazo[1,2-b]pyridazine]	6.00 to 8.00	< 5.30			
CS(=O)(=O)NC1CCC2(CCN(c3cc(-c4cnc5ccc(C(F)F)nn45)ncn3)C2)C1 (single isomer, unassigned) [II-95, N-(2-(6-(6-(Difluoromethyl)imidazo[1,2-b]pyridazin-3-yl)pyrimidin-4-yl)-2-azaspiro[4.4]nonan-7-yl)methanesulfonamide]	6.00 to 8.00	5.30 to 6.30			
CC1C(CNS(C)(=O)=O)C(F)(F)CCN1c1cc(-c2cnc3ccc(C(F)F)nn23)ncn1 (stereo not shown) [II-432, N-((1-(6-(6-(Difluoromethyl)imidazo[1,2-b]pyridazin-3-yl)pyrimidin-4-yl)-4,4-difluoro-2-methylpiperidin-3-yl)methyl)methanesulfonamide]	> 8.00	> 6.30			
OC[C@@H]1CN(c2cc(-c3cnc4ccc(C(F)F)nn34)ncn2)CCO1 [II-9, (S)-(4-(6-(6-(Difluoromethyl)imidazo[1,2-b]pyridazin-3-yl)pyrimidin-4-yl)morpholin-2-yl)methanol]	6.00 to 8.00	5.30 to 6.30			
CS(C)(=O)=NC1CCCN(c2cc(-c3cnc4ccc(C(F)F)nn34)ncn2)C1 (stereo not shown) [II-408, ((1-(6-(6-(Difluoromethyl)imidazo[1,2-b]pyridazin-3-yl)pyrimidin-4-yl)piperidin-3-yl)imino)dimethyl-λ^6-sulfanone]	6.00 to 8.00	5.30 to 6.30			
FC(F)OC1CC(c2cn[nH]c2)CN(c2ccnc(-c3cnc4cnc(C(F)(F)F)cn34)n2)C1 (stereo not shown) [IV-472, 3-(4-(3-(Difluoromethoxy)-5-(1H-pyrazol-4-yl)piperidin-1-yl)pyrimidin-2-yl)-6-(trifluoromethyl)imidazo[1,2-a]pyrazine]			7.00 to 8.00	5.30 to 6.30	
CS(=O)(=O)NCC1CCCN(c2cc(-c3cnc4ccc(C(F)F)nn34)c(Cl)cn2)C1 (stereo not shown) [II-730, N-((1-(5-Chloro-4-(6-(difluoromethyl)imidazo[1,2-b]pyridazin-3-yl)pyridin-2-yl)piperidin-3-yl)methyl)methanesulfonamide]	6.00 to 8.00	5.30 to 6.30			
CC(NS(C)(=O)=O)C1CN(c2cc(-c3cnc4ccc(C(F)F)nn34)ncn2)CCN1C (stereo not shown) [II-474, N-(1-(4-(6-(6-(Difluoromethyl)imidazo[1,2-b]pyridazin-3-yl)pyrimidin-4-yl)-1-methylpiperazin-2-yl)ethyl)methanesulfonamide]	6.00 to 8.00	5.30 to 6.30			
NC(=O)C1CCCN(c2ccnc(-c3cnc4cnc(C(F)(F)F)cn34)n2)C1 (stereo not shown) [IV-626, 1-(2-(6-(Trifluoromethyl)imidazo[1,2-a]pyrazin-3-yl)pyrimidin-4-yl)piperidine-3-carboxamide]			> 8.00	5.30 to 6.30	
CC1CC(CS(C)(=N)=O)C(C)N(c2ccnc(-c3cnc4sc(C(F)(F)F)cn34)n2)C1 (stereo not shown) [Compound V-16, ((2,5-Dimethyl-1-(2-(2-(trifluoromethyl)imidazo[2,1-b]thiazol-5-yl)pyrimidin-4-yl)piperidin-3-yl)methyl)(imino)(methyl)-λ^6-sulfanone]					pKi (GCN2 kinase; compounds of Formula V, 4 nM GCN2 kinase): 6.00 to 7.00; pIC50 ([1]; compounds of Formula V, U2OS cells, 10 μM borrelidin, 1 h, read-out: GCN2 Biomarker (IC50)): < 5.30
CN1CCN(c2cc(-c3cnc4ccc(Cl)nn34)ccn2)CC1 [II-195, 6-Chloro-3-(2-(4-methylpiperazin-1-yl)pyridin-4-yl)imidazo[1,2-b]pyridazine]	6.00 to 8.00	< 5.30			
